A short description of series [1]: wn = mass fraction of the nth substance listed. Particulars: 323.15 K, 101 kPa, Liquid, Pycnometric method.
A short description of series [2]: refractive index (Na D-line) (dimensionless); wn = mass fraction of the nth substance listed. To be noted: 323.15 K, 101 kPa, Liquid, Standard Abbe refractometry.

Structures are written as SMILES. ± gives the expanded uncertainty stated by the source.

The text below walks through data of the NIST ThermoML archive (doi:10.1016/j.fluid.2013.01.004).

On to `[Br-].[Br-].[Mg+2]` [magnesium bromide (MgBr2)] + O, for which, in series [1] (w1 = 0.5202), the mass density (usually mass per unit of volume) worked out at 1662.2 ± 9.3 kg/m3. Moreover, in series [2] (w1 = 0.5202), the refractive index (as a rule, the speed of light in vacuum divided by its phase velocity in the sample) was 1.462 ± 0.0013.
With `O=S(=O)([O-])[O-].[Mg+2]` [magnesium sulfate] + O, the mass density in series [1] (w1 = 0.338) is given as 1387.2 ± 2.1 kg/m3. Further, the refractive index in series [2] (w1 = 0.338) turned out to be 1.3982 ± 0.0012.
